Results: paper PMC12454639, “Direct disassembly of α-syn preformed fibrils into α-syn monomers by an all-D-peptide” (NPJ Parkinson's Disease, 2025)
Square brackets hold non-standard residues; d marks the D form. Peptide text beside a SMILES is read from it.

Tested on: small α-syn PFF
Test: 100 kDa MWCO size-based fractionation of small α-syn PFF followed by ELISA
Type: biochemical, Human
Conditions: 200 nM PFF, 72 h, 37 °C, n = 3
Method: Fig. 4 SVD-1a disassembles small α-syn PFF seeds into α-syn monomers. Small α-syn PFF seeds were prepared as described previously. […] A and B Time-dependent DLS measurements with 200 nM small α-syn PFF seeds in the absence (A) and presence (B) of 500 nM SVD-1a. 1 ml sample was continuously measured in a sealed quartz cuvette at 37 °C under quiescent conditions every 60 s for 72 h in a SpectroSize 300 instrument (XtalConcepts, GE). Data are shown as a radius plot where the signal amplitude of each particle size is represented by the data point diameter. C One-phase exponential decay fit of “200 nM PFF + 500 nM SVD-1a” shown in (B). […] PFF and monomer samples that were incubated without SVD-1a served as controls. α-Syn was detected with the antibody Syn211. […] In the upper part of the blot, above the marker range, PFFs were detected, using a longer exposure time due to a weaker signal (see Supplementary Fig. 11 for the whole blot image with different exposure times). F Size-based fractionation by centrifugal concentration followed by ELISA quantification. […] After incubation, the samples were fractioned using a 100 kDa MWCO centrifugal concentrator (Merck, Microcon DNA Fast Flow 100 MWCO). α-Syn content of flow through (red) and retentate (blue) was quantified using an α-syn specific ELISA (BioLegend, Human α-Synuclein (Colorimetric), 448607). […]

## CC[C@@H](C)[C@@H](NC(=O)[C@@H](Cc1c[nH]cn1)NC(=O)[C@@H](CCC(=O)O)NC(=O)[C@@H](CCC(N)=O)NC(=O)[C@@H](Cc1c[nH]c2ccccc12)NC(=O)[C@@H](Cc1ccc(O)cc1)NC(=O)[C@H](NC(=O)[C@@H](CCC(=O)O)NC(=O)[C@@H](Cc1c[nH]cn1)NC(=O)[C@H](NC(=O)[C@H]1CCCN1C(=O)[C@@H](CC(C)C)NC(=O)[C@H](N)CCCNC(=N)N)[C@H](C)O)[C@H](C)O)C(=O)N[C@H](Cc1c[nH]c2ccccc12)C(=O)N[C@H](Cc1c[nH]cn1)C(=O)N[C@H](C)C(=O)N[C@H](CCCNC(=N)N)C(=O)N[C@H](CCCNC(=N)N)C(=O)N[C@H](CCCNC(=N)N)C(=O)N[C@H](CCCNC(=N)N)C(=O)N[C@H](CCCNC(=N)N)C(N)=O [SVD-1a] (H-[dR][dL][dP][dT][dH][dE][dT][dY][dW][dQ][dE][dH][dI][dW][dH][dA][dR][dR][dR][dR][dR]-NH2)
Increasing SVD-1a, 100 kDa MWCO, ELISA
  α-syn fraction in retentate / eluate: concentration-dependent decrease of the α-syn fraction in the retentate—corresponding to small α-syn PFF—and an increase in the eluate
1000 nM SVD-1a
  α-syn distribution vs monomer control: shows the same distribution as the monomer control
